Results taken from publication PMC6066535, “Polypharmacology of Berberine Based on Multi-Target Binding Motifs” (Frontiers in Pharmacology, 2018).

Columns and labels:
[1] = target: T1, BACE1 (beta-secretase 1) (Homo sapiens, UniProt P56817); assay: SPR (Biacore T200, steady-state affinity); assay type: binding
T1 construct: commercial BACE1 enzyme (Sigma); amine-coupled on CM5 chip for SPR, free enzyme in FRET assay

[2] = target: T1, BACE1 (beta-secretase 1); assay: FRET substrate cleavage assay (Sigma kit); assay type: biochemical
[3] = target: T2, Aβ1-42 (amyloid-β1-42) oligomer (Homo sapiens, UniProt P05067); assay: SPR (Biacore T200, steady-state affinity); assay type: binding
T2 construct: gene APP; commercial 42-residue peptide (Sigma), cut from amyloid precursor protein (APP residues 672-713); oligomer, amine-coupled on CM5 chip
T2 sequence (P05067 672-713): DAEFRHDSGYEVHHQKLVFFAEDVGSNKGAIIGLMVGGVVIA

T1 sequence (P56817 46-501): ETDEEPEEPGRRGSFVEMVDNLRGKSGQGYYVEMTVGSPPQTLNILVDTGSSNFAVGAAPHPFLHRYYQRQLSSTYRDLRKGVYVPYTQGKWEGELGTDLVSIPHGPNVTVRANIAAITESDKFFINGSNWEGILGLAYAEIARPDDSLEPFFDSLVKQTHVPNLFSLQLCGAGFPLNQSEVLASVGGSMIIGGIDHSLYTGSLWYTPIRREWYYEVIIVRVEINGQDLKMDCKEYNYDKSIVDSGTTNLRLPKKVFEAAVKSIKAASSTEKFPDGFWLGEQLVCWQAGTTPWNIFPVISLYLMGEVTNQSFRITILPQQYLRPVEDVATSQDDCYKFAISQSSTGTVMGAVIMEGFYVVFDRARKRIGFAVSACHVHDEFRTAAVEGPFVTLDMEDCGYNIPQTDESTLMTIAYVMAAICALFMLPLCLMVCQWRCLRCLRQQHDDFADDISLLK

COc1ccc2cc3[n+](cc2c1OC)CCc1cc2c(cc1-3)OCO2 [berberine]
Kd [1]: 1260 nM | IC50 [2]: 63 µM | Kd [3]: 1490 nM
